Measurements published in PubChem BioAssay (NCI).
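Each compound was tested at five concentrations against cells in 96-well plates for 48 hours. TGI: total growth inhibition.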

Assays:
Assay in all cases: NCI-60 cell line screen, 48 h
[1] = tested on: U251 CNS
[2] = tested on: T-47D breast
[3] = tested on: HOP-62 NSCLC
[4] = tested on: UO-31 renal
[5] = tested on: HL-60(TB) leukemia
[6] = tested on: ACHN renal
[7] = tested on: EKVX NSCLC
[8] = tested on: RPMI-8226 leukemia
[9] = tested on: MOLT-4 leukemia
[10] = tested on: SF-268 CNS

| Structure (SMILES) | TGI [1] | TGI [2] | TGI [3] | TGI [4] | TGI [5] | TGI [6] | TGI [7] | TGI [8] | TGI [9] | TGI [10] |
| --- | --- | --- | --- | --- | --- | --- | --- | --- | --- | --- |
| COc1ccc2c(c1)CC[C@@H]1[C@@H]2CC[C@]2(C)C(=O)/C(=C/c3cc(OC)c(OC)c(OC)c3)C[C@@H]12 | > 100 µM | > 100 µM | 30.7 µM | > 100 µM | > 100 µM | 40.7 µM | > 100 µM | > 100 µM | > 100 µM | – |
| CC(=N\N=C\c1ccccn1)/C(C)=N/N=C(C)/C(C)=N/N=C(C)/C(C)=N/N=C/c1ccccn1 | > 100 µM | > 100 µM | > 100 µM | > 100 µM | > 100 µM | > 100 µM | > 100 µM | > 100 µM | > 100 µM | > 100 µM |
| N#Cc1nc(/C=C/c2ccccc2)oc1N | > 100 µM | > 100 µM | > 100 µM | > 100 µM | – | > 100 µM | > 100 µM | > 100 µM | > 100 µM | > 100 µM |
| C/C=C\C(CC(=O)NCCC1CN(C(=O)c2ccccc2)c2ccccc21)CC(=O)OC (centres undefined) | > 100 µM | > 100 µM | > 100 µM | > 100 µM | – | > 100 µM | > 100 µM | > 100 µM | > 100 µM | > 100 µM |
| OCCO[P+]1(OCCO)n2c3ccc2C(c2ccccc2)=C2C=CC(=N2)C(c2ccccc2)=c2ccc(n21)=C(c1ccccc1)C1=NC(=C3c2ccccc2)C=C1 | 1.25 µM | 2.09 µM | 1.72 µM | 4.06 µM | 0.222 µM | 1.1 µM | 1.04 µM | 0.0657 µM | 0.701 µM | 2.15 µM |
| COc1ccc2c(c1)-c1oc3ccccc3c(=O)c1CO2 | > 100 µM | 68.5 µM | > 100 µM | 88.4 µM | – | > 100 µM | > 100 µM | > 100 µM | > 100 µM | > 100 µM |
| CCC(C)C1(O)OC2CC3(C)OC(=CC3=O)/C(C)=C\C3OC(=O)C1(C)C32 (centres undefined) | > 100 µM | 33.7 µM | > 100 µM | 47.4 µM | 63.8 µM | 23.5 µM | 32.2 µM | > 100 µM | > 100 µM | > 100 µM |
| CCS(=O)(=O)c1c2cc(OC)ccc2nc2ccc(OC)cc12 | > 100 µM | > 100 µM | > 100 µM | > 100 µM | > 100 µM | > 100 µM | > 100 µM | – | > 100 µM | > 100 µM |
| COC(=O)CCN(CCC(=O)OC)C1CC1 | > 100 µM | > 100 µM | > 100 µM | > 100 µM | > 100 µM | > 100 µM | > 100 µM | > 100 µM | > 100 µM | > 100 µM |
| COc1cc(C(SCc2ccccc2)SCc2ccccc2)ccc1O | > 10 µM | > 10 µM | > 10 µM | > 10 µM | > 10 µM | > 10 µM | > 10 µM | > 10 µM | > 10 µM | > 10 µM |
| CC(=O)NC1=C(C)C(=O)c2c(nc3n2CC[C@H]3OC(C)=O)C1=O | 3.22 µM | 1.37 µM | 28.3 µM | 6.78 µM | 8.97 µM | 9.34 µM | 17.5 µM | 7.4 µM | – | 10.7 µM |
